Data as given in patent publication US8709303B2, “Dielectric insulation medium” (ABB Research Ltd., priority 2010, dated 2014).

How the values were obtained:
[1] = risk for human toxicity, concluded from mammalian HFC tests; conditions: concluded from available results of mammalian HFC tests
Text: This can be concluded from the available results of mammalian HFC (hydrofluorocarbon) tests. Also, information available on commercial hydrofluoro monoethers give no evidence of carcinogenicity, mutagenicity, reproductive/developmental effect and other chronic effects of the compounds of the present application.

[2] = products include I2; cited from earlier work
[3] = thermal stability; conditions: 175° C. for 30 days

Structure (SMILES)	risk for human toxicity [1]	temperature at which decomposition into hazardous products starts [2]	thermal stability [3]
FC(F)(F)COC(F)(F)F [2,2,2-trifluoroethyl-trifluoromethyl ether (CF3—O—CH2CF3)]	low risk for human toxicity		
FC(F)(F)I [CF3I, trifluoroiodomethane (CF3I)]		around 100 °C	
COC(F)(F)C(F)(F)F [pentafluoro-ethyl-methyl ether, pentafluoro-ethyl-methyl ether (CH3—O—CF2CF3)]	low risk for human toxicity		thermally stable
